Results taken from patent US20120157385A1, “CYCLOSPORIN CONJUGATES” (UCL Business PLC, priority 2009, published 2012).
Each block holds one compound with its values, some of them ahead of it.

How the values were obtained:
[1] = tested on: Permeability Transition (PT) pore; assay: Ca2+-induced PT pore opening (swelling, absorbance at 540 nm) in isolated mitochondria; assay type: biochemical; details: read-out: concentration giving 50% inhibition of PT pore opening; isolated rat liver mitochondria, 50 μM Ca2+ infused slowly
CyP-D(+) B50 cells = assay: TMRE uptake (inner membrane potential) in B50 cells and CyP-D overexpressing clone; assay type: cell-based, rat
[2] = tested on: caspase-3 activation in B50 cells; assay: Nitroprusside-induced caspase-3 activation in B50 cells (marker of CyP-A activity); assay type: cell-based, rat; details: 100 μM nitroprusside 40 min, assayed after 5 hr, Compound 1 at 2.5 μM
rat hippocampal neurons = assay: Oxygen and glucose deprivation (pseudo ischaemia/reperfusion) induced necrosis of hippocampal neurons; assay type: cell-based; details: for protection against neuron mortality (necrosis) following OGD: within 90 min, about 60% of neurons necrotic without compound
[3] = tested on: intramitochondrial CyP-D rather than extramitochondrial CyP-A; details: for mitochondrial matrix/extramitochondrial accumulation ratio: isolated rat liver mitochondria plus recombinant CyP-A, 25° C.
[4] = tested on: rat heart cells (ventricular cardiomyocytes); assay: Oxygen and glucose deprivation / reoxygenation induced necrosis of heart cells; assay type: cell-based
cyclophilin D (CyP-D) = cyclophilin D (CyP-D) (Rattus norvegicus, UniProt P29117); assay: PPIase assay, inhibition of recombinant CyP-D by cyclosporins
cyclophilin D (CyP-D), sequence (P29117 30-206): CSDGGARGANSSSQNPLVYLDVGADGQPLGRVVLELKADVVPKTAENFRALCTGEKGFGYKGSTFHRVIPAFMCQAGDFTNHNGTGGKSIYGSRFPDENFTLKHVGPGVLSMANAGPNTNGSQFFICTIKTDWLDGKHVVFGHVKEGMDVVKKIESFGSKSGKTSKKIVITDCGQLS

Compound: C/C=C/C[C@@H](C)[C@@H](O)[C@H]1C(=O)N[C@@H](CC)C(=O)N(C)C(Cc2ccc(C(=O)NCCCCCCNC(=O)CCCCC[P+](c3ccccc3)(c3ccccc3)c3ccccc3)cc2)C(=O)N(C)[C@@H](CC(C)C)C(=O)N[C@@H](C(C)C)C(=O)N(C)[C@@H](CC(C)C)C(=O)N[C@@H](C)C(=O)N[C@H](C)C(=O)N(C)[C@@H](CC(C)C)C(=O)N(C)[C@@H](CC(C)C)C(=O)N(C)[C@@H](C(C)C)C(=O)N1C (stereo partly drawn) [Compound 1, (6-(6-(4-(((5S,8S,11S,14S,17R,20S,23S,26S,29S,32S)-32-ethyl-29-((1R,2R,E)-1-hydroxy-2-methylhex-4-enyl)-5,11,20,23-tetraisobutyl-8,26-diisopropyl-1,4,10,14,17,19,22,25,28-nonamethyl-3,6,9,12,15,18,21,24,27,30,33-undecaoxo-1,4,7,10,13,16,19,22,25,28,31-undecaazacyclotritriacontan-2-yl)methyl)benzamido)hexylamino)-6-oxohexyl)triphenylphosphonium]
IC50 [1]: ~0.4 µM | concentration for maximal restoration of TMRE uptake by CyP-D(+) cells (CyP-D(+) B50 cells; B50 clone overexpressing CyP-D about 10-fold, 50 nM TMRE): ~2400 nM | effect on TMRE uptake by wild type cells (CyP-D(+) B50 cells; wild type B50 cells, 0.8 μM CsA, 2.4 μM Compound 1): did not affect | effect on nitroprusside-induced activation of caspase-3 [2]: no significant effect | protection against neuron mortality (necrosis) following OGD (rat hippocampal neurons; 30 min OGD): approximately halved | concentration giving maximal protection against OGD-induced necrosis (rat hippocampal neurons; hippocampal neurons, 30 min OGD): > 0.8 µM | inhibition of PT pore formation compared with inhibition of extramitochondrial CyP-A ([3]; same incubation, CyP-A activity in supernatant): considerably better

Ki (cyclophilin D (CyP-D)): 0.03 µM | mitochondrial matrix/extramitochondrial accumulation ratio [3]: >10
Compound: CC[C@@H]1NC(=O)[C@H]([C@H](O)[C@H](C)C/C=C/C(=O)NCCOCCNC(=O)CC[P+](c2ccccc2)(c2ccccc2)c2ccccc2)N(C)C(=O)[C@H](C(C)C)N(C)C(=O)[C@H](CC(C)C)N(C)C(=O)[C@H](CC(C)C)N(C)C(=O)[C@@H](C)NC(=O)[C@H](C)NC(=O)[C@H](CC(C)C)N(C)C(=O)[C@H](C(C)C)NC(=O)[C@H](CC(C)C)N(C)C(=O)CN(C)C1=O [Compound 2, (16R,17R,E)-17-((2S,5S,11S,14S,17S,20S,23R,26S,29S,32S)-5-ethyl-11,17,26,29-tetraisobutyl-14,32-diisopropyl-1,7,10,16,20,23,25,28,31-nonamethyl-3,6,9,12,15,18,21,24,27,30,33-undecaoxo-1,4,7,10,13,16,19,22,25,28,31-undecaazacyclotritriacontan-2-yl)-17-hydroxy-16-methyl-4,12-dioxo-1,1,1-triphenyl-8-oxa-5,11-diaza-1-phosphoniaheptadec-13-ene]
necrosis during reoxygenation ([4]; 5 hours reoxygenation, in particular first 3 hours): inhibited | necrosis induced by OGD for 4 hours ([4]; before reoxygenation, with or without compound): negligible necrosis | cytoprotection at 15 nM ([4]; necrosis after 3 hours of reoxygenation, 15 nM): complete protection

Compound: C/C=C/C[C@@H](C)[C@@H](O)[C@H]1C(=O)N[C@@H](CC)C(=O)N(C)C(Cc2ccc(C(=O)NCCOCCNC(=O)CC[P+](c3ccccc3)(c3ccccc3)c3ccccc3)cc2)C(=O)N(C)[C@@H](CC(C)C)C(=O)N[C@@H](C(C)C)C(=O)N(C)[C@@H](CC(C)C)C(=O)N[C@@H](C)C(=O)N[C@H](C)C(=O)N(C)[C@@H](CC(C)C)C(=O)N(C)[C@@H](CC(C)C)C(=O)N(C)[C@@H](C(C)C)C(=O)N1C (stereo partly drawn) [Compound 3, 12-(4-(((5S,8S,11S,14S,17R,20S,23S,26S,29S,32S)-32-ethyl-29-((1R,2R,E)-1-hydroxy-2-methylhex-4-enyl)-5,11,20,23-tetraisobutyl-8,26-diisopropyl-1,4,10,14,17,19,22,25,28-nonamethyl-3,6,9,12,15,18,21,24,27,30,33-undecaoxo-1,4,7,10,13,16,19,22,25,28,31-undecaazacyclotritriacontan-2-yl)methyl)phenyl)-4,12-dioxo-1,1,1-triphenyl-8-oxa-5,11-diaza-1-phosphoniadodecane]
Ki (cyclophilin D (CyP-D)): 0.006 µM | mitochondrial matrix/extramitochondrial accumulation ratio [3]: >10

Ki (cyclophilin D (CyP-D)): 0.12 µM | mitochondrial matrix/extramitochondrial accumulation ratio [3]: 4.2
Compound: C/C=C/C[C@@H](C)[C@@H](O)[C@H]1C(=O)N[C@@H](CC)C(=O)N(C)C(Cc2ccc(C(=O)NCCCCCCNC(=O)c3ccc(-c4c5ccc(=[N+](C)C)cc-5oc5cc(N(C)C)ccc45)cc3)cc2)C(=O)N(C)[C@@H](CC(C)C)C(=O)N[C@@H](C(C)C)C(=O)N(C)[C@@H](CC(C)C)C(=O)N[C@@H](C)C(=O)N[C@H](C)C(=O)N(C)[C@@H](CC(C)C)C(=O)N(C)[C@@H](CC(C)C)C(=O)N(C)[C@@H](C(C)C)C(=O)N1C (some centres unmarked) [Compound 4]

Compound: C/C=C/C[C@@H](C)[C@@H](O)[C@H]1C(=O)N[C@@H](CC)C(=O)N(C)CC(=O)N(C)[C@@H](CC(C)C)C(=O)N[C@@H](C(C)C)C(=O)N(C)[C@@H](CC(C)C)C(=O)N[C@@H](C)C(=O)N[C@H](C)C(=O)N(C)[C@@H](CC(C)C)C(=O)N(C)[C@@H](CC(C)C)C(=O)N(C)[C@@H](C(C)C)C(=O)N1C [CsA, Cyclosporin A]
protection against neuron mortality (necrosis) following OGD (rat hippocampal neurons; 30 min OGD): less protective | protection against OGD-induced necrosis at 0.1 μM (rat hippocampal neurons; hippocampal neurons, 0.1 μM): relatively small protection | protection against OGD-induced necrosis at higher concentrations (rat hippocampal neurons; hippocampal neurons, above 0.1 μM): reversed | maximal protection ([4]; necrosis after 3 hours of reoxygenation): 42%
